In ChEMBL document CHEMBL4251641, “Biotin conjugated organic molecules and proteins for cancer therapy: A review” (Eur J Med Chem, 2018):
Each block holds one compound with its values, some of them ahead of it. Where a SMILES comes first, the peptide text is derived from it. Bridges are numbered along the chain shown (N, C = ends).

Assays:
[1] = Cytotoxicity against mouse L1210FR cells assessed as cell growth inhibition after 72 hrs by MTT assay; format: functional, cell-based
L1210 = test: Cytotoxicity against mouse L1210 cells assessed as cell growth inhibition after 72 hrs by MTT assay; format: functional, cell-based; details: L1210, 72 h
WI-38 = test: Cytotoxicity against human WI38 cells assessed as cell growth inhibition after 72 hrs by MTT assay; format: cell-based; details: WI-38, 72 h
[2] = Selectivity ratio of IC50 for human WI38 cells to IC50 for mouse L1210FR cells; format: toxicity; details: WI38 cells and L1210FR cells, read-out: Ratio IC50
[3] = Selectivity ratio of IC50 for mouse L1210 cells to IC50 for mouse L1210FR cells; format: functional
[4] = Inhibition of high-voltage activated calcium channel (unknown origin) expressed in NG108-15 cells at -90 mV holding potential by whole cell patch clamp assay; format: cell-based; details: Homo sapiens
[5] = Half life in human plasma; format: ADME, cell-free

Structure (SMILES): CC(=O)O[C@@]12CO[C@@H]1C[C@H](O)[C@@]1(C)C(=O)[C@H](OC(=O)C3CC3)C3=C(C)[C@@H](OC(=O)[C@H](OC(=O)Cc4ccccc4SSCCC(=O)NNC(=O)CCCC[C@@H]4SC[C@@H]5NC(=O)N[C@@H]54)[C@H](C=C(C)C)NC(=O)OC(C)(C)C)C[C@@](O)([C@@H](OC(=O)c4ccccc4)[C@H]21)C3(C)C
IC50 [1]: 8.8 nM | IC50 (L1210): 522 nM | IC50 (WI-38): 570 nM | selectivity ratio [2]: 65 | Ratio IC50 [3]: 59

Structure (SMILES): CC(C)C[C@H](NC(=O)[C@H](CCCCN)NC(=O)[C@H](Cc1c[nH]c2ccccc12)NC(=O)[C@H](CCCCN)NC(=O)[C@@H]1CSSC[C@@H]2NC(=O)[C@H](CCC(=O)O)NC(=O)[C@H](CC(N)=O)NC(=O)[C@H](CCCCN)NC(=O)CNC(=O)[C@@H]3CCCN3C(=O)[C@H]([C@@H](C)O)NC(=O)[C@@H]3CSSC[C@H](NC(=O)[C@H](C(C)C)NC(=O)[C@H](CCCNC(=N)N)NC(=O)[C@H](CC(N)=O)NC(=O)[C@@H]4CCCN4C(=O)[C@H](CSSC[C@H](NC(=O)[C@H](C)N)C(=O)N[C@@H](CCCCN)C(=O)NCC(=O)N[C@@H](C(C)C)C(=O)N[C@@H](Cc4ccccc4)C(=O)N[C@@H](CC(=O)O)C(=O)N[C@@H](C)C(=O)N3)NC2=O)C(=O)N[C@@H](CO)C(=O)N[C@@H](CC(=O)O)C(=O)N[C@@H](CCCCN)C(=O)N[C@@H](Cc2cnc[nH]2)C(=O)N[C@@H](CCCCN)C(=O)N[C@@H](Cc2c[nH]c3ccccc23)C(=O)N1)C(=O)O (H-ACKGVFDACTPGKNECCPNRVCSDKHKWCKWKL-OH; disulfide 2-17, 9-22, 16-29)
EC50 [4]: 100 nM

half-life [5]: 9 to 13 min
Structure (SMILES): Nc1ccn([C@@H]2O[C@H](CO)[C@@H](O)C2(F)F)c(=O)n1 [GEMCITABINE]
